Literature values as cited in patent US20120322868A1, “FOOD PRODUCTS, PREPARATION, AND THERAPEUTIC METHODS” (priority 2010, published 2012).

Tests used:
[1] = tested on: insulin levels and insulin sensitivity; details: hyperinsulinemic patients with polycystic ovary syndrome
[2] = tested on: atherosclerosis; details: apolipoprotein E-deficient mice
[3] = tested on: immunological functions and plasma albumin; details: HIV+ patients
[4] = tested on: cancer; details: dietary protein, laboratory animals (Campbell)

Compound	insulin levels and insulin sensitivity [1]	atherosclerosis [2]	immunological functions and plasma albumin concentrations [3]	promotion of cancer [4]
CC(=O)N[C@@H](CS)C(=O)O [NAC, N-acetyl-L-cysteine]	improves insulin levels and insulin sensitivity	reduce atherosclerosis	marked increase	
casein				promotes cancer
